Tests used:
Type in all cases: cell-based, human
[1] = system: β-catenin and SetD1A binding to the TERT promoter in Huh7 cells; assay: Chromatin immunoprecipitation (ChIP) at the TERT promoter; conditions: HCC (Huh7) cells, with or without 300 μmol/L H2O2
Experimental: As it has been described before (Lim S O, et al. Gastroenterology. 2008; 135: 2128-40, 40 el-8.; Hoffmeyer K, et al. Science. 2012; 336: 1549-54.), several modified ChIP (chromatin immunoprecipitation) tests were carried out. In the presence or absence of a PI3K inhibitor, an AKT inhibitor, or a GSK3β inhibitor, Huh7 cells were cultured for 4 days with or without a treatment of 300 μmol/L H2O2. Under mild shaking for 20 minutes at room temperature, the cells were fixed by using 1% paraformaldehyde. After that, the cells were rinsed twice with ice-cold PBS; resuspended with 400 μL of micrococcal nuclease buffer (50 mmol/L TrisHCl [pH 8.0], 5 mmol/L CaC12, 100 μg/mL BSA, 10 mmol/L KCl, and protease inhibitor cocktail [Roche, Basel, Switzerland; 4693159001]); and disrupted with 2 mm-diameter zirconium beads (Watson); to have micrococcal nuclease digestion (New England Biolabs, Beverly, Mass., USA; M0247S). Chromatin (150 μg) was collected and diluted in a dilution buffer (0.1% NP-40, 2 mmol/L EDTA, 150 mmol/L NaCl, 20 mmol/L TrisHCl [pH 8.0], protease inhibitor cocktail [Roche]), and a phosphatase inhibitor cocktail [Calbiochem]), and then subjected to pre-clearing with 2 μg digested salmon sperm DNA, 10 μL preimmune serum (Santa Cruz Biotechnology; sc-2027), and Dynabeads Protein G (Life Technologies; 1004D) for 2 hours at 4° C. After the immunoprecipitation, 20 μL of Dynabeads Protein G were added thereto and the culture was continued for 2 hours. The Dynabeads were washed continuously for 10 minutes with TSE 1 (0.1% SDS, 1% Triton X-100, 2 mmol/L EDTA, 20 mmol/L TrisHCl, and 150 mmol/L NaCl), TSE II (0.1% SDS, 1% Triton X-100, 2 mmol/L EDTA, 20 mmol/L TrisHCl, and 500 mmol/L NaCl), and buffer III (0.25 mol/L LiCl, 1% NP-40, 1% deoxycholate, 1 mmol/L EDTA, and 10 mmol/L TrisHCl). After that, the beads were washed 3 times with TE buffer, and extraction was made by using 1% SDS and 0.1 mol/L NaHCO3. To have reverse formaldehyde cross-linking, the elution solution was heated overnight at 65° C. By using NucleoSpin DNA clean-up kit, DNA debris were purified. By using primers specific to the TERT promoter region, the PCR amplified product was quantified by qPCR (ABI 7300; Applied Biosystems, Foster City, Calif., USA). The PCR amplification was normalized against the TERT intron. The primer sequences are as follows: β-catenin interaction site for ChIP (forward primer: TCCCGGGTCCCCGGCCCA (SEQ ID NO:8); reverse primer: […] (SEQ ID NO:9)) and TERT intron for ChIP (forward primer: […] (SEQ ID NO:10); reverse primer: […] (SEQ ID NO:11)). For each of the β-catenin interaction site which has been recorded before, 20-22 bp were added. The antibodies that are used are as follows: rabbit polyclonal anti-β-catenin (1:200, Abcam, Cambridge, Mass., USA; ab6302), mouse monoclonal anti-RNA polymerase II (1:50, Covance, Princeton, N.J., USA; MMS-126R), and rabbit polyclonal anti-SETD1A (1:100, Novus Biologicals, Littleton, Colo., USA; NBP1-81513).
Inventors of the present invention made an investigation to see whether or not the increased chromatin accessibility in TERT promoter during TERT transcription is related with β-catenin. To do so, by using intrinsic β-catenin and an antibody against histone methyl transferase SetD1A which has been reported to promote the TERT transcription based on chromatin remodeling, chromatin immunoprecipitation was carried out. When a PI3K or AKT inhibitor is treated together for chromatin immunoprecipitation, β-catenin and SetD1A, which bind to the TERT promoter in HCC cells, were reduced even in the presence of H2O2 (FIGS. 3A and 3B). However, when the treatment is carried out also with a GSK3p inhibitor, increased binding of β-catenin and SetD1A was shown regardless of a treatment with H2O2 (FIG. 3C).

[2] = system: TERT expression in HCC cell lines (Huh7 and Hep3B); assay: TERT expression, quantitative real time-PCR and immunoblot; conditions: HCC cells treated simultaneously with NAC and H2O2
Experimental: Medium was exchanged every day, and the aforementioned cells were cultured for 4 days in 300 μmol/L hydrogen peroxide (H2O2) (Sigma Aldrich; H1009). In several experiments, the cells were treated for 1 hour with 5 mmol/L N-acetylcysteine (NAC) (Sigma Aldrich; A7250), 25 μmol/L idelalisib (LC Laboratoties, Woburn, Mass., USA; I-7447), 25 μmol/L perifosine (LC Laboratoties, Woburn, Mass., USA; P-6522), or 30 μmol/L GSK3β inhibitor (GSK3β inhibitor XI) (Santa Cruz; sc-204770) (31) before adding H2O2. Furthermore, sterilized distilled water (pH 7.0) was used as a negative control (i.e., mock treatment).
PCR was carried out by using TOPrealm qPCR 2×PreMIX (SYBR Green with high ROX) (Enzynomics, Daejeon, Korea; RT501M) and ABI Prism 7300 thermal cycler (Applied Biosystems, Foster City, Calif., USA). […] To examine the primer specificity, a dissociation step was additionally included.
Total 2×10^5 cells were boiled for 5 minutes in 2×SDS sample buffer (100 mmol/L TrisHCl [pH 6.8], 4% SDS, 0.2% bromophenol blue, 20% glycerol, and 200 mmol/L β-mercaptoethanol), and then subjected to SDS-PAGE and Western blotting. To detect the TERT, the cells were cultured in 2×SDS sample buffer for 15 minutes at 55° C. TERT-specific (1:300, Rockland Immunochemicals, Gilbertsville, Pa., USA; 600-401-252), AKT-specific (1:1000, Cell Signaling Technology; #9272), phospho-AKT-specific (1:2000, Cell Signaling Technology; #4060), GAPDH-specific (1:2000, Santa Cruz Biotechnology; sc-47724), or β-actin-specific (1:2000, Sigma-Aldrich, St. Louis, Mo., USA; A5441) antibody was diluted in 5% skim milk or bovine serum albumin with TBS-Tween 20, cultured overnight at 4° C., washed, and cultured with HRP-conjugated secondary antibody (1:1000, Abcam; ab131368, or ab131366). By using FUSION-SOLO imager (Vilber Lourmat, Marne La Vallee, France), a chemical fluorescence image was obtained.

[3] = system: telomere length in HCC cell lines (Huh7 and Hep3B); assay: Telomere length (Southern blot, immunoFISH, Flow FISH, quantitative PCR); conditions: HCC cells treated simultaneously with NAC and H2O2
Experimental: Volume of the hybridization buffer was adjusted to 100 μl per 10^5 cells. Next, each sample was cultured for 10 minutes in a water bath at 85° C. […] Total 15,000 to 20,000 nuclei were analyzed for the each separate culture. Telomere fluorescence intensity of the all nuclei at […] phase of the cell cycle was measured by using BD FACS Calibur flow cytometer (Becton Dickinson, Franklin Lakes, N.J., USA) in which CELLQUEST software is used. The established ImmunoFISH protocol (Plentz R R, et al., Hepatology. 2007; 45: 968-76) was used with slight modifications. The paraffin-embedded section was subjected to de-paraffinization using xylene, and then rehydrated using ethanol gradient. Antigen retrieval was carried out by boiling in 100 mmol/L sodium citrate (pH 6.0) for 10 minutes in a microwave. After permeation of proteinase K (15 μg/mL in PBS [pH 7.4]) for 20 minutes at 37° C., 8-oxo-dG-specific antibody (1:100, Abcam, Cambridge, Mass., USA; ab62623) was subjected to 1% BSA dilution in PBS 0.1% Triton X-100 and cultured overnight at room temperature. After washing, the slide was treated with Alexa 647 secondary antibody for 1 hour. […] After denaturation for 6 minutes at 90° C., the sample was hybridized for 2 hours at dark place. […] After washing, the slide was rinsed with PBS containing DAPI, and then sealed with a DAPI sealing agent (mounting medium) (Vector Laboratories, Burlingame, Calif., USA). Simultaneously, the inventors of the present invention carried out centromere staining as an internal control for telomere staining and 8-oxo-dG staining. […] For quantification of the telomere fluorescence intensity, centromere fluorescence intensity, and 8-oxo-dG fluorescence intensity, the same exposure time was employed. The telomere fluorescence level and 8-oxo-dG fluorescence level of tumor tissues were calculated by division of the fluorescence level in non-tumor tissues corresponding to 5 random fields. The image analysis was carried out by using Image-Pro plus 6.0 software (Media Cybernetics, Inc., Rockville, Md., USA). Telomere length was determined by using the non-radioactive chemical fluorescence TeloTAGGG telomere length assay (Roche; Cat. No. 12 209 136 001) according to the manual. Genomic DNA was separated from HCC cells using GeneJET Genomic DNA Purification Kit (Thermo Scientific; #K0721), and then 4 μg of the genomic DNA was digested for 16 hours at 37° C. with 20 units of […] digested DNA was subjected to 0.8% agarose gel electrophoresis, and then transferred to a positively charged nylon membrane using capillary transfer. The blotted DNA was hybridized for 16 hours at 42° C. with a digoxigenin (DIG)-labeled probe that is specific to the telomere repeat. After that, it was cultured for 30 minutes at room temperature with DIG-specific antibody conjugated to an alkaline phosphatase Based on quantitative PCR analysis using the genomic DNA extracted from cells, relative telomere repeat copy number (T) and single copy number (S) were determined, and the calculation was made like previous method in which T/S ratio is continuously modified (Cawthon R M. Telomere length measurement by a novel monochrome multiplex quantitative PCR method. Nucleic Acids Res. 2009; 37: e21).

Row | SMILES | SetD1A binding to the TERT promoter [1] | β-catenin binding to the TERT promoter [1] | H2O2-induced increased TERT expression [2] | H2O2-induced increased telomere length [3]
1 | O=C1NC(=O)C(c2cn(CCCO)c3ncccc23)=C1c1cnccn1 [GSK3β inhibitor XI] | increased | increased |  | 
2 | CCCCCCCCCCCCCCCCCCOP(=O)([O-])OC1CC[N+](C)(C)CC1 [perifosine] | reduced | reduced |  | 
3 | CC(=O)N[C@@H](CS)C(=O)O [NAC, N-acetylcysteine] |  |  | disappeared | disappeared
